Source: patent US5863937A, “Pharmaceutical compositions” (BTG International Limited, priority 1993, dated 1999)
Converted amounts (≈) assume the structure as drawn.

Key:
Experiment in all cases: MIC, broth serial dilution in liquid YNB medium
C. albicans ATTC 26278 = type: cell-based, Candida albicans; conditions: 30° C., 24 hours; for minimum inhibiting concentration (MIC), C. albicans ATTC 26278: YNB-Difco medium, 200 μg/ml sodium glutamate, 10^5 cells/ml; for minimum inhibiting concentration (MIC) against Candida albicans ATCC 26278: liquid YNB medium, monosodium glutamate 200 μg/ml
Protocol: The antifungal activity of the compounds has been determined by the serial dilution method in a liquid YNB (Yeast Nitrogen Base) medium containing monosodium glutamate at a concentration of 200 μg/ml, with a temperature of 30° C. and an incubation time of 24 hours.
(§1) The minimum inhibiting concentrations (MIC) in mg/ml were determined for the compounds of Examples 1, 2, 7, 8, 12 and 13 against various Candida sp. using the broth serial dilution method of Milewski et al., Drugs Exp. Clin. Res., 1988, 14, 461. A liquid Yeast Nitrogen Base (YNB)-Difco medium containing 200 μg/ml sodium glutamate was used with a content of 10^5 cells/ml at a temperature of 30° C. and with an incubation time of 24 hours.

C. albicans 2043 = type: cell-based, Candida albicans; conditions: YNB-Difco medium, 200 μg/ml sodium glutamate, 10^5 cells/ml, 30° C., 24 hours
Protocol: as §1

C. famata 1940 = type: cell-based, Candida famata; conditions: YNB-Difco medium, 200 μg/ml sodium glutamate, 10^5 cells/ml, 30° C., 24 hours
Protocol: as §1

C. glabrata = type: cell-based, Candida glabrata; conditions: YNB-Difco medium, 200 μg/ml sodium glutamate, 10^5 cells/ml, 30° C., 24 hours
Protocol: as §1

C. krusei = type: cell-based, Candida krusei; conditions: YNB-Difco medium, 200 μg/ml sodium glutamate, 10^5 cells/ml, 30° C., 24 hours
Protocol: as §1

[1] = listed as N^2 -L-norvalyl-N^3-trans-2,3-epoxysuccinamoyl-L-2,3-diaminopropanoic acid in th

Row | Compound | minimum inhibiting concentration (MIC), C. albicans ATTC 26278 (C. albicans ATTC 26278) [µg/mL] | minimum inhibiting concentration (MIC) against Candida albicans ATCC 26278 (C. albicans ATTC 26278; [1]) [µg/mL] | minimum inhibiting concentration (MIC), C. albicans 2043 (C. albicans 2043) [µg/mL] | minimum inhibiting concentration (MIC), C. famata 1940 (C. famata 1940) [µg/mL] | minimum inhibiting concentration (MIC), C. glabrata (C. glabrata) [µg/mL] | minimum inhibiting concentration (MIC), C. krusei (C. krusei) [µg/mL] | minimum inhibiting concentration (MIC) against Candida albicans ATCC 26278 (C. albicans ATTC 26278) [µg/mL]
1 | CCC[C@H](N)C(=O)N[C@@H](CNC(=O)[C@@H]1O[C@H]1C(N)=O)C(=O)O (relative stereo) [Nva--EADP, N^2 -L-Norvalyl-N^3 -D-trans-2,3-epoxysuccinamoyl-L-2,3-diaminopropanoic acid] | 150 (≈ 474 µM) | 0.15 (≈ 0.474 µM) | 100 (≈ 316 µM) | 350 (≈ 1110 µM) | 500 (≈ 1580 µM) | 350 (≈ 1110 µM) | –
2 | CCC[C@H](NC(=O)[C@@H](N)CCCCN)C(=O)N[C@@H](CNC(=O)[C@@H]1O[C@H]1C(N)=O)C(=O)O (relative stereo) [Lys--Nva--EADP, N^2 -L-Lysyl-L-norvalyl-N^3 -D-trans-2,3-epoxysuccinamoyl-L-2,3-diaminopropanoic acid] | 200 (≈ 450 µM) | – | 250 (≈ 562 µM) | 500 (≈ 1120 µM) | 500 (≈ 1120 µM) | 750 (≈ 1690 µM) | –
3 | CCC[C@H](N)C(=O)N[C@@H](CNC(=O)[C@@H]1O[C@H]1C(N)=O)C(=O)O (racemic) [Nva--DL--EADP, N^2 -L-Norvalyl-N^3 -DL-trans-2,3-epoxysuccinamoyl-L-2,3-diaminopropanoic acid] | 250 (≈ 790 µM) | 0.25 (≈ 0.79 µM) | 250 (≈ 790 µM) | 500 (≈ 1580 µM) | 750 (≈ 2370 µM) | 350 (≈ 1110 µM) | –
4 | CCC[C@H](NC(=O)[C@@H](N)CCCCN)C(=O)N[C@@H](CNC(=O)[C@@H]1O[C@H]1C(N)=O)C(=O)O (racemic) [Lys--Nva--DL--EADP, N^2 -L-Lysyl-L-norvalyl-N^3 -DL-trans-2,3-epoxysuccinamoyl-L-2,3-diaminopropanoic acid] | 500 (≈ 1120 µM) | – | 500 (≈ 1120 µM) | 1000 (≈ 2250 µM) | 750 (≈ 1690 µM) | 1500 (≈ 3370 µM) | –
5 | CCC[C@H](NC(=O)[C@@H](N)CNC(=O)[C@@H]1O[C@H]1C(N)=O)C(=O)O (relative stereo) [EADP--Nva, N^3 -D-trans-2,3-Epoxysuccinamoyl-L-2,3-diaminopropionyl-L-norvaline] | 400 (≈ 1260 µM) | – | 500 (≈ 1580 µM) | 500 (≈ 1580 µM) | 1000 (≈ 3160 µM) | 800 (≈ 2530 µM) | –
6 | CCC[C@H](NC(=O)[C@@H](N)CNC(=O)[C@@H]1O[C@H]1C(N)=O)C(=O)O (racemic) [DL--EADP--Nva, N^3 -DL-trans-2,3-Epoxysuccinamoyl-L-2,3-diaminopropionyl-L-norvaline] | 500 (≈ 1580 µM) | – | 750 (≈ 2370 µM) | 750 (≈ 2370 µM) | 1250 (≈ 3950 µM) | 1000 (≈ 3160 µM) | –
7 | C[C@H](N)C(=O)N[C@@H](CNC(=O)[C@@H]1O[C@H]1C(N)=O)C(=O)O (racemic) [Ala--DL--EADP, N^2 -L-alanyl-N^3 -DL-trans-2,3-epoxysuccinamoyl-L-2,3-diaminopropanoic acid, reference compound] | 1200 (≈ 4160 µM) | – | 1000 (≈ 3470 µM) | – | 1500 (≈ 5200 µM) | – | 1.2 (≈ 4.16 µM)
